Assay results published in ChEMBL document CHEMBL1141714, “Peptidyl epoxides extended in the P' direction as cysteine protease inhibitors: effect on affinity and mechanism of inhibition” (Bioorg Med Chem, 2008).

What was measured:
[1] = biological target: Cathepsin B (Homo sapiens, UniProt P07858); assay: Binding affinity to cathepsin B treated up to 2 hrs at 37degC by Dixon plot
[2] = biological target: T1, Papain (Carica papaya, UniProt P00784); assay: Binding affinity to Carica papaya papain treated up to 2 hrs at 25 degC by Dixon plot
T1 sequence (P00784 whole entry): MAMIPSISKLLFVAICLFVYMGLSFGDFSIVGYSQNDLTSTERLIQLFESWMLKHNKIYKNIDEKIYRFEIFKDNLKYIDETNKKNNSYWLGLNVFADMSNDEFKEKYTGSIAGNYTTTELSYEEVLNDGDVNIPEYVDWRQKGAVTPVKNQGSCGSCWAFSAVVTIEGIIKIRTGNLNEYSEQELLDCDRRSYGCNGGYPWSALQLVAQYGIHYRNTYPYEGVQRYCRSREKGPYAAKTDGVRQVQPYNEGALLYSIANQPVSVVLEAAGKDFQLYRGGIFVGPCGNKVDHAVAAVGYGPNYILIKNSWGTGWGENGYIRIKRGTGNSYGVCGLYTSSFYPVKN

| Compound | Ki [1] | Ki [2] |
| --- | --- | --- |
| COC(=O)[C@H](C)NC(=O)[C@H](C)NC(=O)C[C@@H]1O[C@H]1CNC(=O)[C@H](Cc1ccccc1)NC(=O)OCc1ccccc1 | 244 µM | 73 µM |
| COC(=O)[C@H](C)NC(=O)[C@H](C)NC(=O)C[C@H]1O[C@H]1CNC(=O)[C@H](Cc1ccccc1)NC(=O)OCc1ccccc1 | 94 µM | 18 µM |
| O=C(N[C@@H](Cc1ccccc1)C(=O)NCC1CO1)OCc1ccccc1 (stereo partly specified) | 1020 µM | 390 µM |
